Test results taken from patent US20080200438A1, “Treatment of Autoimmune Diseases” (priority 2005, published 2008).
Entries after “also recorded” stand apart in the source; their conditions may differ.

How the values were obtained:
[1] = tested on: acute experimental autoimmune encephalomyelitis (EAE); assay: Acute EAE model; type: in vivo, Lewis rat; settings: for Prevention of disease symptoms in the acute EAE model: doses between 0.1 and 10 mg/kg/day, oral
[2] = tested on: chronic EAE; assay: Chronic EAE model; type: in vivo, DA rat
Procedure: Induction of AEA in DA rat is induced as described by Lorentzen et al, 1995, J. Neuroimmunol.; 63(2):193-205 and Adelmann et al, 1995, J. Neuroimmunol.; 63(1):17-27. Briefly, rats are immunized with a mixture of DA rat brain and DA rat and bovine spinal cord homogenate supplemented with 0.02 μg/ml purified recombinant rat MOG protein. The mixture is homogenized and then mixed 1:1 with complete Freund's adjuvant containing 4 mg/ml M. tuberculosis H37RA(CFA). The resultant mixture is then homogenized using a Polytron PT3100 homogenizer (Kinematica, Lucerne, Switzerland). Rats are then injected subcutaneously at the dorsal root of tail with a single injection of 200 μl antigen/CFA. The resultant chronic disease is evaluated using numeric scale of progressive paralysis: 0, no paralysis; 1, loss of tail tonicity; 2, hindlimb weakening or ataxia; 3, hindlimb paralysis with or without urinary incontinence; 4, hindlimb and forelimb paralysis; 5, moribund or death. Clinical scores are evaluated on a daily basis, while body weight is determined every other day. […] Treatment of animals begins at the peak clinical disease on the 12th day and continues daily the 33rd day post-immunization (total 22 days). The test compound or vehicle (for the control groups) is administered orally daily.

[3] = tested on: chronic-relapsing EAE; assay: Chronic-relapsing EAE model; type: in vivo, Lewis rat; settings: 0.3 mg/kg/day orally, day 16 to day 31
Excerpt: Animal models: The monophasic model of acute experimental autoimmune encephalomyelitis (EAE) and the chronic relapsing form are considered to be instructive animal models for multiple sclerosis. EAE can be induced in susceptible animals by a single injection of CNS tissue or MBP emulsified in complete Freund's adjuvant into the base of the tail. A monophasic acute paralytic disease appears in susceptible rat strains, e.g., Lewis, Wistar rat, about 8-11 days post-sensitization. The symptomatic rats recover within the following 7 days, but in other species the attack is usually lethal. In the chronic relapsing disease models rats undergo one to three relapses following the acute disease bout. These relapses are usually from very mild to severe and are observed within 20-100 days after the acute bout.
Chronic-relapsing EAE is induced by injecting an emulsion of guinea pig spinal cord in complete Freund's adjuvant in the hind paws of Lewis rats. Six to ten rats per group are used and somatic symptoms are judged daily on a scale of 0-3. The number of diseased animals as well as the time of onset of the disease is recorded. […] The statistical significance between treated and untreated groups is analyzed on each day using ANOVA analysis of variance followed by Dunn's multiple comparisons. […]

[4] = 1 mg/kg p.o. daily days 0-13, female Lewis rats
[5] = 0.1 mg/kg p.o. daily days 0-13, female Lewis rats
[6] = 0.3 mg/kg p.o. daily days 0-13, female Lewis rats

| SMILES | First symptoms on day [1, 4] [days] | Number of Animals with EAE/total Day 12 [1, 4] | Number of Animals with EAE/total Day 14 [1, 4] | Prevention of disease symptoms in the acute EAE model [1] | Inhibition of chronic EAE ([2]; 0.3, 0.1 or 0.03 mg/kg/d orally, day 12 to day 33 post-immunization) | Clinical disease compared to vehicle group ([2]; each dose (0.3, 0.1, 0.03 mg/kg/d orally), statistical analysis) | Prevention of clinical relapses in the chronic relapsing EAE model [3] | First symptoms on day [1, 5] [days] | Number of Animals with EAE/total Day 12 [1, 5] | Number of Animals with EAE/total Day 14 [1, 5] | First symptoms on day [1, 6] [days] | Number of Animals with EAE/total Day 12 [1, 6] | Number of Animals with EAE/total Day 14 [1, 6] |
| --- | --- | --- | --- | --- | --- | --- | --- | --- | --- | --- | --- | --- | --- |
| C[C@](N)(CO)CCc1ccc(Sc2cccc(OCc3ccccc3)c2)cc1Cl [Compound B, (R)-2-amino-4-[4-(3-benzyloxyphenylthio)-2-chlorophenyl]-2-methylbutane-1-ol] | >14 | 0/5 | 0/5 | lead to prevention of disease symptoms |  |  |  |  |  |  |  |  |  |
| NC(CO)(CO)CCc1ccc(Sc2cccc(OCc3ccccc3)c2)cc1Cl [Compound A, 2-amino-2-[4-(3-benzyloxyphenylthio)-2-chlorophenyl]ethyl-propane-1,3-diol] | >14 | 0/5 | 0/5 | lead to prevention of disease symptoms; also recorded: prevents disease symptoms | effectively inhibits chronic EAE | significant reduction in clinical disease | prevents clinical relapses | 9 | 0/5 | 3/4 | 14 | 0/5 | 1/5 |
| CC[C@](N)(CO)CCc1ccc(Sc2cccc(OCc3ccccc3)c2)cc1Cl [Compound C, (R)-2-amino-4-[4-(3-benzyloxyphenylthio)-2-chlorophenyl]-2-ethylbutane-1-ol] | >14 | 0/5 | 0/5 | lead to prevention of disease symptoms |  |  |  |  |  |  |  |  |  |
